Experiments:
[1] = test system: melanoma cell lines Malme-3M, A375, G361, SK-Mel-2, SK-Mel-5, and SK-Mel-28; test: Time course of cell survival (flow cytometry); type: cell-based, human
Description: The time course of cell survival in melanoma cell lines (Malme-3M, A375, G361, SK-Mel-2, SK-Mel-5, and SK-Mel-28) after administration of small molecule compound FN1-8 was analyzed. These melanoma cells were incubated with 10 μM or 20 μM FN1-8. Then flow cytometry was used to examine the percentage of living and dead cells at different time points. […] (FIGS. 18A, B, and C, and data not shown).

[2] = test system: cytosolic β-catenin in human normal skin fibroblasts (Malme-3); test: Western blot of cytosolic β-catenin; type: cell-based; conditions: 10 μM or 20 μM
Description: […] Protein concentrations were measured using Bio-Rad Protein Assay reagent. Whole cell lysate protein (5-20 ug) were boiled for 5 min and separated by 10-20% SDS-PAGE. Proteins were transferred to an Immobilon-P membrane (Millipore Corp., Bedford, Mass.) using semi-dry transfer cell (Bio-Rad; Benicia, Calif.). The membranes were blocked with 5% nonfat milk powder and 0.1% Tween 20 in Tris-buffer saline overnight at 4° C. and then incubated with primary antibody for 1 h at room temperature. Membranes were washed in 5% nonfat milk powder and 0.1% Tween 20 in Tris-buffer saline for three 10-min periods. Horseradish peroxidase-conjugated goat anti-rabbit or donkey anti-mouse antibodies were used as secondary antibodies. Proteins were visualized with chemiluminescence luminol reagents (Santa Cruz Bio-technology). Anti-Dvl-3, and anti-Survivin, antibodies were from Santa Cruz Biotechnology (Santa Cruz, Calif.). Anti-Caspase3 antibody was from Oncogene (Cambridge, Mass.). Anti-β-Actin antibody was from Sigrna-Aldrich Corp. (St. Louis, Mo.). Anti-β-catenin antibody was from Transduction Laboratories (Lexington, Ky.). Anti-Cytochrome c antibody was from BD Biosciences (San Diego, Calif.). For detecting alteration of β-catenin cytosolic extracts were prepared and examined as described previously in the publications from our lab. […]

[3] = biological target: T1, GLI1-TAFbd peptide / TAFII31 protein (Homo sapiens, UniProt Q16594); test: Co-immunoprecipitation of GLI-TAFbd peptide and TAFII31; type: binding
T1 construct: The full-length TAFII31 cDNA insert cloned into the (c-myc-tag)pCDNA3.1 expression vector was used as template; made in house; host or cells: cell-free: TNT quick coupled transcription/translation system (Promega)
T1 sequence (Q16594 whole entry): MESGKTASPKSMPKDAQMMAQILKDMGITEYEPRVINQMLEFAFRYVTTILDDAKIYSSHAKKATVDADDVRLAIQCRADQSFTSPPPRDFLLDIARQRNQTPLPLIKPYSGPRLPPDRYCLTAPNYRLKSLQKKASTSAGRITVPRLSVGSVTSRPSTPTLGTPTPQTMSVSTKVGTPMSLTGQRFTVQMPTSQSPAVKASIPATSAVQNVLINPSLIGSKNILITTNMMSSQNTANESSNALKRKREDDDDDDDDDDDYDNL
Description: (§1) The binding between GLI-TAF binding domain peptides (GLI-TAFbd) and TAFII31 protein was quantified by measuring the intensity of each band of an co-immunoprecipitation experiments with arbitrary unit. The binding after DMSO treatment was set to 100% for each GLI-TAFbd peptide. The binding was interfered by FN1-8 in dose-dependent manner: the binding for GLI1-TAFbd was 73.6% and 33.5%, for GLI2-TAFbd was 73.8% and 60%, for GLI3-TAFbd was 71.6% and 28.6%, after treatment with 20 μM and 50 μM FN1-8, respectively. Details are described in Example 35.
(§2) Specifically for this experiment, biotinylated TAF binding domain of GLI proteins, GLI1, GLI2, and GLI3 (see below) were custom synthesized at Genemed Synthesis, Inc. The GLI-TAF binding domain (GLI-TAFbd) peptide sequences were as follows;
(§3) TAFII31 proteins were prepared by using the TNT quick coupled transcription/translation systems (Promega) according to the manufacturer's protocol. The full-length TAFII31 cDNA insert cloned into the (c-myc-tag)pCDNA3.1 expression vector was used as template in this in vitro translation system. An empty (c-myc-tag)pCDNA3.1 expression vector was used as a control. The biotinylated GLI peptides (i.e., the TAF binding domains of three different GLI proteins) were incubated with the TAFII31 protein in the presence or absence of small molecule compound FN1-8 (at 20 μM and 50 μM). Then the biotinylated GLI-peptide-TAFII31 complexes were precipitated with streptavidine agarose followed by immunoblotting with an anti-c-myc antibody (A-14; Santa Cruz Biotech, Inc.; Cao et al., 2001, Science 293:115-120). […] As a control, there was no pull-down of TAFII31 by all three GLI peptides when the empty (c-myc-tag)pCDNA3.1 expression vector was used in in vitro translation system (FIG. 23).

[4] = biological target: T2, GLI3-TAFbd peptide / TAFII31 protein (Homo sapiens, UniProt Q16594); test: as above; type: binding
T2 construct: The full-length TAFII31 cDNA insert cloned into the (c-myc-tag)pCDNA3.1 expression vector was used as template; made in house; host or cells: cell-free: TNT quick coupled transcription/translation system (Promega)
T2 sequence (Q16594 whole entry): as above
Description: as §1, §2, §3

[5] = biological target: T3, GLI2-TAFbd peptide / TAFII31 protein (Homo sapiens, UniProt Q16594); test: as above; type: binding
T3 construct: The full-length TAFII31 cDNA insert cloned into the (c-myc-tag)pCDNA3.1 expression vector was used as template; made in house; host or cells: cell-free: TNT quick coupled transcription/translation system (Promega)
T3 sequence (Q16594 whole entry): as above
Description: as §1, §2, §3

[6] = test system: NSCLC cell lines H1299 and A549, colon cancer cell lines SW480 and HCT116; test: Cell survival assay (crystal violet), initial screening; type: cell-based, human; conditions: 100 μM, all cancer cell lines tested
Description: Typically, the small molecule compounds of the present invention were dissolved in DMSO at a concentration of 30 mM. The small molecule compounds were then tested under cell culture conditions at different concentrations ranging from 0, 10, 30, 50, to 100 uM. To determine cell survival after treatment, the cells were incubated with the small molecule compounds in 6-well plates for about 3 days. After removal of the cell culture medium, 1-ml of 0.5% crystal violet solution (prepared in 20% ethanol and 20% methanol) was added to stain the cells for 5 min. Then the crystal violet solution was rinsed clean with tap water. Cell survival was estimated based on the density of crystal stained plates.
Initial screening of small molecule compounds of the present invention was performed using the cell-based assays described herein. […] Two NSCLC cell lines, H1299 and A549, and two colon cancer cell lines, SW480 and HCT116, were incubated with small molecule compounds FN1-1, FN1-2, FN1-3; FN1-5 and FN2-1 at a concentration of 100 μM. DMSO was used as a control. […] This assay identified the small molecule compound FN1-5 inhibiting GLI transcription activation domain (TAF-binding domain, TAFbd), as an active hit compound.

SMILES | time after which cell killing effect was apparent ([1]; 20 μM, all tested melanoma cells) | apoptosis in time course experiment ([1]; Malme-3M, A375, SK-Mel-5 (FIG. 14)) | cytosolic β-catenin level [2] | binding of GLI1-TAFbd to TAFII31 (DMSO = 100%) ([3]; 20 μM) | binding of GLI1-TAFbd to TAFII31 (DMSO = 100%) ([3]; 50 μM) | binding of GLI3-TAFbd to TAFII31 (DMSO = 100%) ([4]; 20 μM) | binding of GLI3-TAFbd to TAFII31 (DMSO = 100%) ([4]; 50 μM) | binding of GLI2-TAFbd to TAFII31 (DMSO = 100%) ([5]; 20 μM) | binding of GLI2-TAFbd to TAFII31 (DMSO = 100%) ([5]; 50 μM) | cell killing effect [6]
O=C(NCCc1ccc(O)cc1)C1C(c2ccccc2)=NN(c2ccccc2)C1c1ccccc1 (stereo not shown) [FN1-8, N-(2-(4-Hydroxyphenyl)ethyl)-1,3,5-triphenyl-4,5-dihydro-pyrazole-4-carboxyamide] | 2 days | induces significant apoptosis | no noticeable change | 73.6% | 33.5% | 71.6% | 28.6% | 73.8% | 60% | –
O=C(NCCCCCO)C1C(c2ccccc2)=NN(c2ccccc2)C1c1ccccc1 (stereo not shown) [FN1-5, N-(5-Hydroxypentyl)-1,3,5-triphenyl-4,5-dihydro-pyrazole-4-carboxyamide] | – | – | – | – | – | – | – | – | – | dramatic cell killing effect
